Our source for the IC50 values is PubChem BioAssay AID1671316.

The experiment addresses Tyrosine-protein kinase Lck (Homo sapiens) (UniProt P06239). Put plainly: PubChem AID 1671316. The note with it: Z'-LYTE FRET kinase assay, recombinant LCK.

Tyrosine-protein kinase Lck (Homo sapiens), sequence (P06239 whole entry, looked up): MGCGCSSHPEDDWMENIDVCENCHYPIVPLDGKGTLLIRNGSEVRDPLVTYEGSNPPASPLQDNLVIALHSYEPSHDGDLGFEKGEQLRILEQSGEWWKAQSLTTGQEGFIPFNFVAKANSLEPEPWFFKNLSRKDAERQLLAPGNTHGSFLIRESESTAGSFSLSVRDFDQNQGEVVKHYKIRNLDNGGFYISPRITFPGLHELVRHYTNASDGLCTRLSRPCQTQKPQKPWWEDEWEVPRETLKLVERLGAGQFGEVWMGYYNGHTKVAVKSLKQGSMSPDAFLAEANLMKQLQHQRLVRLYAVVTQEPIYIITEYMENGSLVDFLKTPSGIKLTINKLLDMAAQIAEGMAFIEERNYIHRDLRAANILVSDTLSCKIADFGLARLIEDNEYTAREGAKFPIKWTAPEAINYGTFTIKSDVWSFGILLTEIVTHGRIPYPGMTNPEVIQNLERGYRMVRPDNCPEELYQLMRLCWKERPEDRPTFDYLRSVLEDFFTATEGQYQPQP

Regarding `COc1cc2ncnc(Nc3cccc(Cl)c3)c2cc1OC`, the 50% inhibitory concentration (IC50) (usually the concentration that inhibits the measured activity by half) is 799 nM.
